Source: paper PMC10224510, “Luteolin and Vernodalol as Bioactive Compounds of Leaf and Root Vernonia amygdalina Extracts: Effects on α-Glucosidase, Glycation, ROS, Cell Viability, and In Silico ADMET Parameters” (Pharmaceutics, 2023)

Target: α-glucosidase (EC 3.2.1.20, Saccharomyces cerevisiae type I)
Assay: enzyme inhibition with pNPG substrate, absorbance at […] nm
Format: biochemical

O=c1cc(-c2ccc(O)c(O)c2)oc2cc(O)cc(O)c12 [luteolin]
IC50: 16.2 µM
